Test results reported in PMC11481179, “Development and Application of Reversible and Irreversible Covalent Probes for Human and Mouse Cathepsin‐K Activity Detection, Revealing Nuclear Activity” (Advanced Science, 2024).

Columns and labels:
[1] = molecular target: T1, endogenous CTSK in intact U-2 OS cells (Homo sapiens, UniProt P43235); assay: Labeling of endogenous CTSK in intact cells, fluorescent SDS-PAGE; type: cell-based
T1 construct: ability to label endogenous CTSK activity in intact cells; endogenous in cells; host or cells: U-2 OS
T1 sequence (P43235 115-329): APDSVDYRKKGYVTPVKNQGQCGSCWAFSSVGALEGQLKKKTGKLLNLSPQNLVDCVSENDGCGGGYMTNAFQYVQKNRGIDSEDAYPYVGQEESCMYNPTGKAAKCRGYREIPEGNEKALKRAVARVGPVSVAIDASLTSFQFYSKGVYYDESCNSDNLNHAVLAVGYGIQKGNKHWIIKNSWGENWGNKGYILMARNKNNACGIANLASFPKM
Procedure: To test probe selectivity and the ability to label endogenous CTSK activity in intact cells, three cell lines were selected: human osteosarcoma MG‐63 and U‐2 OS, and human glioblastoma U‐87 MG; all cell lines express CTSK along with other lysosomal cathepsins.^[ [44] ^] First, the ABPs were incubated with intact U‐2 OS cells for different durations of time, and the probe selectivity toward CTSK was examined, with a pan cathepsin ABP, GB123, used as a control that labels CTS B, K, L, and S in cells. After cell lysis, the probe‐labeled enzymes were resolved and detected by a fluorescent scan of the SDS‐PAGE. […] Specifically, intact MG‐63 cells required a 5 h incubation (Figure 2b,c), while U‐87 MG cells required a 2 h incubation (Figure 2d).
Figure 2 Labeling of endogenous CTSK in intact cells. a) U2‐OS cells were treated with DMSO or 5 µM of the indicated inhibitors in culture medium, for 2 h, then with indicated ABPs [5 µM] in a culture medium for indicated times, followed by cell lysis, SDS‐PAGE separation, and fluorescent scanning of the gel at 635/670 nm. An immunoblot of CTSK of the same gel is presented below. b) Intact MG63 cells were treated with GD32 5 µM in the culture media for indicated times, cell lysates were analyzed as in a. CTSK immunoblot is presented, pro and mature CTSK are indicated by arrows. c) MG63 cells and d) U87MG cells were treated with DMSO, or 5 µM of indicated inhibitors in culture medium for 2 h, followed by incubation with 5 µM of indicated probes for 5 h (GD32 and GD42) and 2 h (GB123), cell lysates were analyzed by fluorescent SDS PAGE as in a. […] In (c) a CTSK immunoblot of a representative MG63 lane on the right. e) Labeling of active mature CTSK by GD32 in A549 and U2‐0S cells in externally adjusted different pH. Cells were incubated with 5 µM GD32 for 24 h in growth media at indicated pHs, prior to the cell lysis, cell lysates were analysed as in a. CTSK immunoblot below. f) A549 cells were incubated with increasing concentrations of GD30 for 2 h at pH = 5, followed by the incubation with 5 µM GD32 for 24 h prior to the cell lysis, cell lysates were analyzed as in a. g) Intact U‐87 MG cells or U‐87 MG cell lysates were treated with 5 µM GD32 for 2 h, the intact cells were then lysed and all lysates were analyzed as in (a). h) Intact or lysates of U‐87MG were treated with GD32 for 2 h then immunoprecipitation was done with an anti‐CTSK antibody. Input (I), immunoprecipitation (IP), and output (O) were separated by a 14% SDS‐PAGE and scanned for fluorescence. The gel was then blotted and reacted with an anti‐cystatin B antibody below. ODN (Odanacatib), GB111 (GB111‐NH2), mCTSK (mature CTSK). […]
deoxycholate). After adding sample buffer, samples were boiled for 10 minutes, and analyzed […]
lysates were analyzed as described above. […]

[2] = molecular target: T2, CTSK (Homo sapiens, UniProt P43235); assay: In vitro kinetic evaluation of cathepsin inhibition, fluorescent substrate Z-FR-AMC; type: biochemical; conditions: for mode of inhibition: CTSK
T2 sequence (P43235 115-329): T1 sequence (P43235 115-329)
Excerpt: used for TLC. Phosphate Buffer Saline (PBS) was purchased from Biological Industries (pH = […]
7.4) and was used as a buffer system in all experiments if not indicated otherwise. […]
Recombinant human CTSB, CTSK, CTSL, and CTSS were supplied by B. Turk (J.
Stefan Institute).[1] […]
Fluorescent gels were scanned by a Typhoon FLA 9500 flatbed laser scanner (GE Healthcare […]
Bio-Sciences AB, Uppsala, Sweden). BioRad ChemiDox XRS+ was used for western blot […]
analysis. Olympus FV10i inverted microscope (Tokyo,Japan) with Fluoview software or Zeiss […]
Confocal LSM 980 with Airyscan (Germany) with Zen software were used for confocal […]
In vitro kinetic evaluation of labeling recombinant cathepsins:
Reactions were monitored for 30 min at 37° C in 96-well black flat-bottom microplates […]
(Greiner, Germany) using Tecan […] M1000 pro plate reader (Tecan, Switzerland), […]
substrates Z-RR-AMC (CTSL) or Z-FR-AMC (CTSS, CTSB and CTSK), and excitation and […]
emission wavelengths of 370 and 460 nm, respectively. Cathepsin concentrations in the assay were 0.4 nM (CTSK) or 5 nM (CTSS, CTSB, and CTSL). The buffer was 100 mM Na2HPO4/NaH2PO4, 50 mM NaCl, 5 mM DTT, 0,1% Peg-6000, pH 6. For irreversible inhibitors, reaction data were fitted to the one-phase association formula in GraphPad Prism 9 software: Y=Y0 + (Plateau-Y0)*(1-exp(-K*X)) where in this case Y0 and Y represent fluorescence signal at times 0 and t, respectively, K represent the observed reaction rate kobs and X the inhibitor concentration. Inactivation rates at each inhibitor concentration were […]
maximal rate of inactivation (kinact) was obtained as the asymptote from equation […]
for each X, and Kiapp is the apparent inhibition constant. Ki values were calculated from IC50 or from Kiapp using formulas Ki = Kiapp / (1 + Km/S) and IC50 = E0/2 + Kiapp, where Km stands for Michalis-Menten constant, S for substrate concentration and E0 for cathepsin concentration.
The highest inhibitor concentrations in the assay were 50 µM. Measurements were performed in several independent duplicates. Average values are presented with standard deviations. […]

With `C#CCNC(=O)[C@H](CC(C)C)N[C@@H](c1ccc(-c2ccc(S(=O)(=O)CCNC(=O)OC(C)(C)C)cc2)cc1)C(F)(F)F` [GD30] the “effect of inhibitor preincubation on GD32-labeled CTSK band” value ([1]; inhibitor 5 µM, 2 h, then GD32 5 µM) was “depletion of the CTSK‐specific band”.

`C#CCNC(=O)[C@H](CC(C)C)N[C@@H](c1ccc(-c2ccc(S(=O)(=O)CCNC(=O)CCCCC[N+]3=C(/C=C/C=C/C=C4/N(C)c5ccc(S(=O)(=O)O)cc5C4(C)C)C(C)(C)c4cc(S(=O)(=O)O)ccc43)cc2)cc1)C(F)(F)F` [GD32] was tested, and the “CTSK specificity of labeling” value ([1]; probe 5 µM, incubation up to 24 h) was “retained its CTSK specificity up to 24 h”, the mode of inhibition [2] was “Irreversible” and the Ki ([2]; CTSK 0.4 nM, pH 6, 37 °C) was 3.6 nM. For the same compound, the kinact ([2]; CTSK 0.4 nM, pH 6, 37 °C) was 0.0007 ± 0.0001 s⁻¹ and the kinact/Ki ([2]; CTSK 0.4 nM, pH 6, 37 °C) was 26 ± 14 × 10^4 M^−1sec^−1.

`CC(C)C[C@H](N[C@@H](c1ccc(-c2ccc(S(=O)(=O)CCNC(=O)CCCCC[N+]3=C(/C=C/C=C/C=C4/N(C)c5ccc(S(=O)(=O)O)cc5C4(C)C)C(C)(C)c4cc(S(=O)(=O)O)ccc43)cc2)cc1)C(F)(F)F)C(=O)NC1(C#N)CC1` [GD37] was tested, and the mode of inhibition [2] was “Reversible [Tight binding]” and the IC50 ([2]; CTSK 0.4 nM, tight binding) was 0.4 nM.
